Data from US7442707B2, “CCI-779 polymorph and use thereof” (Wyeth, priority 2005, dated 2008).

Legend:
[1] = Storage stability of crystalline Form II (conversion to Form I); type: physicochemical; settings: stored under room temperature and pressure
Description: Stable Form II can be prepared as described and stored under room temperature and pressure for greater than 3 months without conversion to Form I.

[2] = Powder flow characteristics from crystal morphology at bench scale; type: physicochemical; settings: Form II plate-like morphology vs Form I needle-like

storage time without conversion to Form I [1]: greater than 3 months
SMILES: COC1CC2CCC(C)C(O)(O2)C(=O)C(=O)N2CCCCC2C(=O)OC(C(C)CC2CCC(OC(=O)C(C)(CO)CO)C(OC)C2)CC(=O)C(C)/C=C(\C)C(O)C(OC)C(=O)C(C)CC(C)/C=C/C=C/C=C/1C (centres unmarked) [CCI-779 polymorph Form II, Rapamycin 42-ester with 3-hydroxy-2-(hydroxymethyl)-2-methylpropionic acid]
powder flow characteristics relative to Form I [2]: better powder flow characteristics than form I
